The results in this text go back to PubChem BioAssay (NCI).

Molecules are shown by their SMILES.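 Interpolation was linear, between the two tested concentrations surrounding the appropriate level; five concentrations were tested over 48 hours in 96-well plates. Abbreviation: GI50, concentration required for 50% inhibition of growth. TGI is the concentration that stops growth completely.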

Among the test systems are SNB-75 CNS; UACC-62 melanoma; HT29 colon; HL-60(TB) leukemia; UO-31 renal; MALME-3M melanoma; NCI-H460 lung; HOP-62 NSCLC; KM12 colon; NCI-H522 lung.
Common to all, as to assay: growth of human tumour cells (NCI), 48 h

Take `O=C1c2cccc3cc([N+](=O)[O-])cc(c23)C(=O)N1CCCN1CCN(CCCN2C(=O)c3cccc4cc([N+](=O)[O-])cc(c34)C2=O)CC1`: the TGI with SNB-75 CNS is 9.54 µM; in the assay on UACC-62 melanoma, 1.65 µM; in the assay on HT29 colon it was > 100 µM; in the assay on HL-60(TB) leukemia it was 12.8 µM; in the assay on UO-31 renal it was 1.01 µM; in the assay on MALME-3M melanoma, 25.3 µM. Also, the TGI in the assay on NCI-H460 lung was > 100 µM; in the assay with HOP-62 NSCLC, 33.8 µM.

Regarding `Cn1cc(NC(=O)c2cc(NC(=O)CCCCCC(=O)Nc3cc(C(=O)Nc4cc(C(=O)NCCC(=N)N)n(C)c4)n(C)c3)cn2C)cc1C(=O)NCCC(=N)N`, the TGI in the assay on SNB-75 CNS, with UACC-62 melanoma, in the assay with HT29 colon, with HL-60(TB) leukemia, with UO-31 renal and with MALME-3M melanoma was > 100 µM throughout. The TGI with KM12 colon and with NCI-H460 lung was > 100 µM each time.

In the case of `CCOC(=O)c1c2ccc(/C=C/C(=O)OC)ccc-2c(C(=O)OCC)c1N`, the TGI with SNB-75 CNS, with UACC-62 melanoma, in the assay with HT29 colon, with HL-60(TB) leukemia, with UO-31 renal and in the assay on MALME-3M melanoma was > 100 µM each time. Also, the TGI in the assay with KM12 colon, in the assay with NCI-H522 lung and in the assay with NCI-H460 lung was > 100 µM throughout.

Take `Cn1nnnc1[N-]Cc1ccccc1.[Au+].c1ccc([PH+](c2ccccc2)c2ccccc2)cc1`: the GI50 was 7.92 µM with SNB-75 CNS; 1.72 µM in the assay with UACC-62 melanoma; 5.02 µM with HT29 colon; 0.509 µM in the assay with HL-60(TB) leukemia; 13 µM in the assay on UO-31 renal; 1.64 µM with MALME-3M melanoma. In addition, the GI50 with KM12 colon is 11.1 µM; with NCI-H460 lung, 19.1 µM; with HOP-62 NSCLC it was 16 µM. Moreover, the TGI in the assay with SNB-75 CNS came out at 20.5 µM; in the assay on UACC-62 melanoma it was 7.12 µM; in the assay on HT29 colon, 13.3 µM; in the assay on HL-60(TB) leukemia it was 1.45 µM; in the assay with UO-31 renal it was 25.7 µM; with MALME-3M melanoma, 3.39 µM. For the same molecule, the TGI in the assay on KM12 colon is 38 µM; in the assay with NCI-H460 lung, 65.7 µM; in the assay on HOP-62 NSCLC, 30 µM.

In the case of `ClCCn1cnc2c(SCc3ccccc3)ncnc21`, the GI50 in the assay on SNB-75 CNS was 0.777 µM; in the assay on UACC-62 melanoma it was 6.65 µM; with HT29 colon, 0.872 µM; in the assay with HL-60(TB) leukemia it was 4.68 µM; in the assay on UO-31 renal, 2.13 µM; in the assay with MALME-3M melanoma it was 25.7 µM. Moreover, the GI50 with KM12 colon was 1.04 µM; in the assay with NCI-H460 lung, 0.356 µM; in the assay with HOP-62 NSCLC it was 1.44 µM. Further, the TGI in the assay on SNB-75 CNS is > 100 µM; in the assay with UACC-62 melanoma it was > 100 µM; with HT29 colon, > 100 µM; in the assay with HL-60(TB) leukemia it was 68.3 µM; in the assay on UO-31 renal it was 39.4 µM; with MALME-3M melanoma it was > 100 µM. Moreover, the values for the TGI in the assay with KM12 colon, in the assay on NCI-H460 lung and with HOP-62 NSCLC were > 100 µM, 30.1 µM and > 100 µM, respectively.

As for `OCC1OC(N2C=C(c3nc4ccccc4s3)C3C=CC=CC32)C(O)C1O` (stereo unspecified), the GI50 in the assay with SNB-75 CNS is 7.8 µM; with UACC-62 melanoma, 8.92 µM; in the assay on HT29 colon it was 9.52 µM; with HL-60(TB) leukemia, 21 µM; in the assay on UO-31 renal it was 17.7 µM; with KM12 colon, 8.95 µM. Besides, the GI50 in the assay with NCI-H522 lung is > 50 µM; in the assay with NCI-H460 lung, 9.91 µM; with HOP-62 NSCLC it was 16 µM. The TGI was 26 µM in the assay with SNB-75 CNS; 19 µM with UACC-62 melanoma; 25.2 µM with HT29 colon; > 50 µM in the assay with HL-60(TB) leukemia; > 50 µM with UO-31 renal; 23.4 µM in the assay on KM12 colon. In addition, the TGI in the assay with NCI-H522 lung, in the assay with NCI-H460 lung and with HOP-62 NSCLC was > 50 µM each time.

For `CC1=C2N3C[C@@H](n4c(=O)n(C)c(=O)n43)C23CCC1n1c(=O)n(C)c(=O)n13`, the TGI in the assay on SNB-75 CNS, in the assay with UACC-62 melanoma, in the assay with HT29 colon, in the assay on HL-60(TB) leukemia, in the assay with UO-31 renal and with MALME-3M melanoma was > 100 µM each time. For the same molecule, the TGI with KM12 colon, in the assay with NCI-H460 lung and in the assay with HOP-62 NSCLC was > 100 µM in each case.

As for `O=[N+]([O-])/C=C\c1ccc2c(c1)OCO2`, the GI50 in the assay with SNB-75 CNS is 10.3 µM; in the assay on UACC-62 melanoma, 15.3 µM; in the assay with HT29 colon it was 2.07 µM; in the assay on HL-60(TB) leukemia it was 10.2 µM; with UO-31 renal, 1.59 µM; in the assay with MALME-3M melanoma, 14.6 µM. Besides, the GI50 was 2.04 µM with KM12 colon, 10.6 µM in the assay on NCI-H460 lung and 13.3 µM in the assay on HOP-62 NSCLC. Also, the TGI with SNB-75 CNS is 22.2 µM; in the assay with UACC-62 melanoma it was 31.8 µM; with HT29 colon, 4.89 µM; with HL-60(TB) leukemia, 46.5 µM; in the assay on UO-31 renal, 3.2 µM; in the assay with MALME-3M melanoma it was 32.9 µM. Moreover, the TGI stood at 4.43 µM with KM12 colon, 27.5 µM with NCI-H460 lung and 27 µM with HOP-62 NSCLC.
